Results from patent US4956466A, “Thiazole derivatives and process for the preparation thereof” (Laboratorios Vinas, S. A., priority 1988, dated 1990).

System: ethanol-induced ulcers
Assay: Necrotising agent model: ethanol-induced ulcers
Type: in vivo, rat
Protocol: (B) Necrotising agent model:
Using the necrotising agent model, ethanol in this case, described by Robert el al. (Gastroenterology, 77: 433, 1979), the activity of LV-200 was compared with that of Nt at equimolar dose levels and a control group which was administered vehicle.
The table below gives the lesion indices (in ulcerated area in mm) of the three groups studied, as well as the percentage inhibition of the ulcers of the treated groups over the control group (mean values±standard error of the mean).

CNC(=C[N+](=O)[O-])NCCSCc1csc(CN(C)C)n1 [Nt, N-methyl-N'-2-((2(dimethylaminomethyl)-4-thiazolyl)methylthio)ethyl-2-nitro-1,1-ethylenediamine]
inhibition of ulcers induced by absolute ethanol (in words) (absolute ethanol): does not inhibit ulcers
% inhibition of the ulcers over the control group (ethanol, equimolar doses of LV-200 (230 mg/kg) and Nt): 0%
lesion index (ulcerated area), mm lesions (ethanol, equimolar doses of LV-200 (230 mg/kg) and Nt, mean ± standard error of the mean, control 91.2 ± 17.7, LV-200 p < 0.01 vs control, p < 0.001 versus Nt (t test)): 97.7 ± 11.8 mm
